Data reported in US9084788B2, “Compositions and methods for treating and preventing dermatoses” (Asymmetric Therapeutics, LLC, priority 2002, dated 2015).

Columns and labels:
OPRT = target: T1, OPRT (Homo sapiens, UniProt P11172); conditions: neutral pH; cited from earlier work
T1 sequence (P11172 1-480): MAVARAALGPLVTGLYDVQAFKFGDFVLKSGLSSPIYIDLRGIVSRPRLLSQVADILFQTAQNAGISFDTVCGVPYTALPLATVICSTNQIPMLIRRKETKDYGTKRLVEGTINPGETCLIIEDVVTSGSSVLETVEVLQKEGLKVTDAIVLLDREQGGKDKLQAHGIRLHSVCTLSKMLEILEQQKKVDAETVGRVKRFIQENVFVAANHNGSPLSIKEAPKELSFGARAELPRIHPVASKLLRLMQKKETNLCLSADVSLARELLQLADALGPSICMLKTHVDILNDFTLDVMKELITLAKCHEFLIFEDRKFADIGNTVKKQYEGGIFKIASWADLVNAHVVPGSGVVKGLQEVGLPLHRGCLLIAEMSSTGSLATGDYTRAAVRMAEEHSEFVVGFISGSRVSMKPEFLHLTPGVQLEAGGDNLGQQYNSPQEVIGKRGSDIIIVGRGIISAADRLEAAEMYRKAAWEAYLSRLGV

[1] = target: T2, human dihydrouracil dehydrogenase (DPD) (Homo sapiens, UniProt Q12882); conditions: Naguib et al. 1985; cited from earlier work
T2 sequence (Q12882 4-1025): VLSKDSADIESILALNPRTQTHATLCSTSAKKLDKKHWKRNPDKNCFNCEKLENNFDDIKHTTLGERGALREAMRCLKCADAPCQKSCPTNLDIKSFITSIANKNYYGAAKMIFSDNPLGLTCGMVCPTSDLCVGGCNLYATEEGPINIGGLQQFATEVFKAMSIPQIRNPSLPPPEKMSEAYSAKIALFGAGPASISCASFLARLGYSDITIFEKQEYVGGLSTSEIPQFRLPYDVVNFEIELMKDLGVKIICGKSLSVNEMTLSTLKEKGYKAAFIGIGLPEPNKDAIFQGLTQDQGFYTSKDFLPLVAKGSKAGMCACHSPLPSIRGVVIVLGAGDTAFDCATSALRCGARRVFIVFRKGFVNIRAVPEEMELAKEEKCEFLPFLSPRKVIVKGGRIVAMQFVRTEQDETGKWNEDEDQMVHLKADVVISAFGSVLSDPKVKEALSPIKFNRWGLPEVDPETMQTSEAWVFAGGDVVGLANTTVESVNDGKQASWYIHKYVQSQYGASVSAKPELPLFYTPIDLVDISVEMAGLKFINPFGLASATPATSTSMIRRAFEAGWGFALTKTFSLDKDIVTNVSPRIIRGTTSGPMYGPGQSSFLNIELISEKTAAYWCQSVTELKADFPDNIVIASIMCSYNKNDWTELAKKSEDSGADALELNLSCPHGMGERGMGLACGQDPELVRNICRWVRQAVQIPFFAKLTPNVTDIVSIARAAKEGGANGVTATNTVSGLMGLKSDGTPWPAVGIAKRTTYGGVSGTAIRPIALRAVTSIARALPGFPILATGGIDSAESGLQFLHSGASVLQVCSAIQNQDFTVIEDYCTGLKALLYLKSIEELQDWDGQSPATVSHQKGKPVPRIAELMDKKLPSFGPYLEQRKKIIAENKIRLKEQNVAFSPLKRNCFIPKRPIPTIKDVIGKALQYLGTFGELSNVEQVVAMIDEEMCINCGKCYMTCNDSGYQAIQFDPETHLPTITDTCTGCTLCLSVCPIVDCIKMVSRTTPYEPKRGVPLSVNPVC

[2] = target: T3, dihydropyrimidine dehydrogenase (DPD) (Homo sapiens, UniProt Q12882); conditions: in vivo; cited from earlier work
T3 construct: greater than 80% of an injected dose of 5-FU rapidly degraded by a single pathway
T3 sequence (Q12882 4-1025): T2 sequence (Q12882 4-1025)

[3] = test system: Marker tumor (metastatic breast cancer); test: Marker tumor size in the metastatic breast cancer patient on Xeloda and Taxotere; type: in vivo, human; conditions: seen prior to course 5, on lower dose Xeloda (1000 mg/m^2)
Description: They had refused mastectomy and had previously failed adriamycin and cytoxan, weekly taxol, and weekly navelbine. […] FIGS. 3A, 3B and 3C illustrate the incidence of Hand and Foot syndrome in patients treated with Xeloda®.

[4] = test system: patients (hand-foot syndrome); conditions: in vivo; cited from earlier work
[5] = test system: patients (Hand and Foot syndrome); test: Ten patients treated one to six months, prevention of Hand and Foot syndrome; type: in vivo, human
Description: The calculations are based on topical application of 1 g of cream to the hands and 1 g to the feet twice a day, totaling 4 g. […] A volume of distribution (Vd) of 50 L is assumed.

Q: Which “Km for OPRT, lower than that of 5-FU” value (OPRT) does the source give for `O=C(O)c1cc(=O)[nH]c(=O)[nH]1` [Orotate, orotate] here?
A: ~50 fold

Q: With `O=c1[nH]cc(F)c(=O)[nH]1` [5-FU, 5-fluorouracil] as the compound, how does the “substrate quality for DPD compared with uracil” value [1] read?
A: better substrate

Q: And the “share of an injected dose rapidly degraded by the DPD pathway” value [2]?
A: greater than 80%

Q: And the “OPRT preference for 5-FU over uracil” value (OPRT)?
A: about 50 times

Q: Which “Marker tumor course (remark)” value [3] does the source give for `CCCCCOC(=O)Nc1nc(=O)n([C@@H]2O[C@H](C)[C@@H](O)[C@H]2O)cc1F` [Xeloda, capecitabine] here?
A: progression

Q: What about the “frequency of hand-foot syndrome during treatment” value [4] of the same compound?
A: common

Q: And the “patients with Grade II-III hand foot toxicity” value [4]?
A: 10-50%

Q: For `O=c1cc[nH]c(=O)[nH]1` [Uracil, uracil], which toxicity [5] is on record?
A: no reports of toxicity

Q: And the “prevention of Hand and Foot syndrome” value ([5]; 1% cream)?
A: complete efficacy
